Read-outs that look alike come from different tables or passages of the source.
Experiments:
Jack Bean α-mannosidase [1] = molecular target: T1, Jack Bean α-mannosidase (Canavalia ensiformis, UniProt C0HJB3); assay: Inhibition assays on Jack-Bean α-mannosidase (p-nitrophenyl-α-D-mannopyranoside hydrolysis, Dixon and Lineweaver–Burk); format: biochemical
T1 construct: purchased Sigma Aldrich, St. Louis, MO, USA
T1 sequence (C0HJB3 1-981): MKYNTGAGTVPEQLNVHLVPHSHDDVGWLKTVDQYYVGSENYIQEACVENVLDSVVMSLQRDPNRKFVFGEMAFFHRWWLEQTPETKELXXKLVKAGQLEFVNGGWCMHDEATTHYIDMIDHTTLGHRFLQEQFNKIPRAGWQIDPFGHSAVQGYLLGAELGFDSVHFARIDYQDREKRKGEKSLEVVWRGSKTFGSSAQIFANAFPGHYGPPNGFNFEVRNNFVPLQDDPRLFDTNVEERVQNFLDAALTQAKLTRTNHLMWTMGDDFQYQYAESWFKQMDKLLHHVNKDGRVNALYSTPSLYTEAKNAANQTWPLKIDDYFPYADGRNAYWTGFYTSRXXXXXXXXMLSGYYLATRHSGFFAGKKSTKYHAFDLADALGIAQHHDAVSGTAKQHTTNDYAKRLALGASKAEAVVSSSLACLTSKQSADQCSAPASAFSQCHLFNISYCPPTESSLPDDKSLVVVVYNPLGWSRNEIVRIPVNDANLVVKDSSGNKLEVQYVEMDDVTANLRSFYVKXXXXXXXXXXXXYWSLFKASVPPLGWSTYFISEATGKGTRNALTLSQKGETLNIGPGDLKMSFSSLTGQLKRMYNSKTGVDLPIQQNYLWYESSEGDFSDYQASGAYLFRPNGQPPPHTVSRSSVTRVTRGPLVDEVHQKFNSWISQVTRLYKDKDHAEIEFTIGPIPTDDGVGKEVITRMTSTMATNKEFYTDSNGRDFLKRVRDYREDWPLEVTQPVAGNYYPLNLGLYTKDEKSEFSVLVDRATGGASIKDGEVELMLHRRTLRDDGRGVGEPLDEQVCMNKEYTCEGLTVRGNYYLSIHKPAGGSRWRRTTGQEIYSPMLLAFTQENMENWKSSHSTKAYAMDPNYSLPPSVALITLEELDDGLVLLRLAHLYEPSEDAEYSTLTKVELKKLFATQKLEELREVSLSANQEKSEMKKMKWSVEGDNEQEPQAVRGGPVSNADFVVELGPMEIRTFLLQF
Procedure: p-nitrophenyl-α-D-mannopyranoside and α-mannosidase (EC 3.2.1.24, from Jack Bean) were purchased from Sigma Aldrich, St. Louis, MO, USA. Inhibition constants were determined spectrophotometrically by measuring the residual hydrolytic activities of the α-mannosidase against p-nitrophenyl-α-D-mannopyranoside in the presence and absence of an inhibitor. Each well was filled with a total volume of 100 µL, containing 0.2 M acetate buffer pH 5, inhibitor, substrate and enzyme. All kinetics were performed between 25 °C and 27 °C and started by enzyme addition. After 30–50 min of incubation, the reaction was quenched by addition of 100 µL of 1M Na2CO3. The absorbance of the resulting solution was determined at 405 nm. Ki values were determined in triplicate, using the Dixon and Lineweaver–Burk graphical methods within Microsoft Excel. Stock solutions of inhibitors were prepared with DMSO/buffer for final well DMSO content under 5%. The stability of the enzyme in the presence of the same concentrations of DMSO was controlled and enzyme activity was unaffected.

[2] = Isothermal titration calorimetry of iodide binding to bambusuril; settings: in water, ITC
Procedure: ITC measurements were performed with a VP-ITC microcalorimeter (Microcal, GEHealthcare). Experiments were carried out in water and in a solution of K2HPO4 (1.5 mM) in mili-Q water at 298.15 ± 0.1 K. Anion binding to BU was investigated via a classical isothermal titration experiment (10 µL additions) and a single injection method (SIM). Injection of sodium iodide solution was added automatically to the BU solution present in the calorimeter cell while stirring at 307 rpm. Integrated heat effects were analyzed by non-linear regression using a single-site binding model (Microcal Origin 7). The experimental data fitted to a theorical titration curve, giving the association constant Ka, the enthalpy of binding ΔH° and the entropy ΔS°. The free energy ΔG° was calculated from the equation: ΔG° = ΔH° − TΔS°, where T is the absolute temperature. The first smaller addition (2 µL), which was used to compensate for diffusion of the guest from the injector during equilibration, was discarded prior to data fitting.
Figure S1. Isothermal titration calorimetry of I- binding to (DNJ-C6)12BU[6] 6 in H2O.
Top: Data were obtained from the sequential injections of 10µL of guest solution (0.6 mM NaI) to BU
6 (0.05 mM). Bottom: Plot of the total heat released as a function of the total ligand concentration
for the titration shown upper.
(1 picture or pasted object on this page, not shown here)

Jack Bean α-mannosidase [3] = molecular target: T1, Jack Bean α-mannosidase; settings: cited from earlier work

| Inhibition Mode (Jack Bean α-mannosidase [1]) | Ki (Jack Bean α-mannosidase [1]; 0.2 M acetate buffer pH 5, 25-27 °C, for mixed inhibitors the first value of the cell (Ki)) [µM] | Ki' (Jack Bean α-mannosidase [1]; mixed inhibition, second value of the cell (Ki' in supplement)) [µM] | Rp (relative potency) (Jack Bean α-mannosidase [1]; rp = Ki (monovalent reference)/Ki (neoglycocluster)) | Ka (iodide) [2] [M⁻¹] | Compound | Ki (Jack Bean α-mannosidase [3]; monovalent C6 reference) [µM] | Inhibition Mode (Jack Bean α-mannosidase [3]; monovalent references) |
| --- | --- | --- | --- | --- | --- | --- | --- |
| mixed | 68.2 | 147 ± 21 | 4.7 | 480000 | O=C1N(Cc2cn(CCCCCCN3C[C@H](O)[C@@H](O)[C@H](O)[C@H]3CO)nn2)C2C(N1Cc1cn(CCCCCCN3C[C@H](O)[C@@H](O)[C@H](O)[C@H]3CO)nn1)N1CN3C(=O)N(CN4C(=O)N(CN5C(=O)N(CN6C(=O)N(CN7C(=O)N(CN2C1=O)C1C7N(Cc2cn(CCCCCCN7C[C@H](O)[C@@H](O)[C@H](O)[C@H]7CO)nn2)C(=O)N1Cc1cn(CCCCCCN2C[C@H](O)[C@@H](O)[C@H](O)[C@H]2CO)nn1)C1C6N(Cc2cn(CCCCCCN6C[C@H](O)[C@@H](O)[C@H](O)[C@H]6CO)nn2)C(=O)N1Cc1cn(CCCCCCN2C[C@H](O)[C@@H](O)[C@H](O)[C@H]2CO)nn1)C1C5N(Cc2cn(CCCCCCN5C[C@H](O)[C@@H](O)[C@H](O)[C@H]5CO)nn2)C(=O)N1Cc1cn(CCCCCCN2C[C@H](O)[C@@H](O)[C@H](O)[C@H]2CO)nn1)C1C4N(Cc2cn(CCCCCCN4C[C@H](O)[C@@H](O)[C@H](O)[C@H]4CO)nn2)C(=O)N1Cc1cn(CCCCCCN2C[C@H](O)[C@@H](O)[C@H](O)[C@H]2CO)nn1)C1C3N(Cc2cn(CCCCCCN3C[C@H](O)[C@@H](O)[C@H](O)[C@H]3CO)nn2)C(=O)N1Cc1cn(CCCCCCN2C[C@H](O)[C@@H](O)[C@H](O)[C@H]2CO)nn1 (stereo partly shown) [Compound 6, (DNJ-C6)12BU[6]] | – | – |
| – | – | – | – | – | CCCn1cc(CCCCCCN2C[C@H](O)[C@@H](O)[C@H](O)[C@H]2CO)nn1 [Compound 21] | 322 | competitive |

Source: paper PMC9330389, “Bambus[4,6]urils as Dual Scaffolds for Multivalent Iminosugar Presentation and Ion Transport: Access to Unprecedented Glycosidase-Directed Anion Caging Agents” (Molecules, 2022)
